Experimental data from US10881642B2, “Autophagy enhancer and use thereof” (Industry-Academic Cooperation Foundation, Yonsei University, priority 2016, dated 2021).

System: INS-1 cells transfected with prepro-hIAPP-HA
Test: pro-hIAPP accumulation and apoptosis in transfected INS-1 cells
Format: cell-based, mice
Conditions: for accumulation of pro-hIAPP dimers: western blot, anti-HA
Protocol: (FIG. 13A) INS-1 cells transfected with non-amyloidogenic prepro-mIAPP-HA or amyloidogenic prepro-hIAPP-HA construct were treated with MSL or MSL-7 followed by western blot analysis using anti-HA antibody. (FIG. 13B) the transfected cells of (FIG. 13A) were treated with MSL-7 in the presence or absence of bafilomycin followed by western blot analysis using anti-HA antibody. (FIG. 13C) The transfected cells were treated with MSL-7 in the presence or absence of 3-MA, after which the amount of […] contained in the cell lysates were measured. (FIG. 13D) HFD-fed hIAPP+ mice were administered with MSL-7, and non-fasting glucose level was monitored. (FIG. 13E) IPGTT. (FIG. 13F) HFD-fed hIAPP+ mice were administered with MSL-7 for 8 weeks and the insulinogenic index was measured. (FIG. 13G) HFD-fed hIAPP+ mice were administered with MSL-7 for 8 weeks and the pancreatic section was obtained. All antibody was used for immunohistochemistry (left). The percentage of A11-[…] cells among DAPI+ cells (right). (FIG. 13H) FSB stained pancreatic section of HFD-fed hIAPP+ mice administered with MSL-7 for 8 weeks (left). Average fluorescence intensity/area (right).
Screening of autophagy enhancer. […] Luciferase assay. […] Firefly luciferase was determined after mixing 5 μl of lysate with 25 μl of Luciferase Assay Reagent II. Renilla luciferase was then determined after further addition of 20 ul of Stop&Glo Reagent. […] Cytotoxicity was determined by the measurement of LDH release in cell culture media using the LDH kit (Roche), according to the protocol from the manufacturer. […] Imaging and image quantification. […] Formation of acidic vesicular organelles was quantitated by staining the cells with acridine orange (Invitrogen, 5 ug/ml, 10 min). […] Cells or tissues were solubilized in lysis buffer supplemented with protease and phosphatase inhibitors and protein concentration was measured by the Bradford method. Ten to 30 micrograms were loaded on 4-12% Bis-Tris gel (NUPAGE, Invitrogen) or 8-15% SDS-PAGE, transferred to PVDF membranes and analyzed by western blot using the ECL method (Pierce). […]

SMILES | apoptosis of cells transfected with prepro-hIAPP (in the presence of 3-MA) | accumulation of pro-hIAPP dimers
COc1oc(-c2ccccc2Cl)nc1S(=O)(=O)c1ccccc1 [MSL-7, 2-(2-chlorophenyl)-5-methoxy-4-(phenylsulfonyl) oxazole] | significantly reduced | reduced
CSc1oc(-c2ccccc2)nc1S(=O)(=O)c1ccc(F)cc1 [MSL] |  | reduced
